The test has as its system xylene-induced ear swelling. Kind of test: Xylene-induced mouse ear swelling. Format: in vivo. Particulars: Kunming mice, dose 2 mg/kg, injected once a day for 5 days. The method, then:
Kunming mice were taken, a normal saline group was taken as a blank control group, an aspirin group (200 mg/kg) was taken as a positive control group, and X1-X90 administration groups were taken as test groups. The mice were injected once a day for 5 consecutive days. The blank control group was given an equal volume of normal saline. One hour after the last administration, 0.05 mL of xylene was applied to both sides of the right ear of each mouse to cause inflammation, while no drug was applied to the left ear as a normal ear. Two hours later, the mice were put to death by dislocation. Two ears were cut along the auricle. Ear pieces were taken with a puncher and weighed, and the swelling degree and the swelling rate were calculated. Swelling degree=right ear piece weight-left ear piece weight, swelling rate=(swelling degree/left ear piece weight)*100%. Statistical t-test was conducted on the experimental results. *P<0.05 indicates significant difference, and **P<0.01 indicates extremely significant difference.

Each structure is given as a SMILES string. Peptide text beside a SMILES is read from it. * marks the point of attachment. X66 = O=C1C=CC(=O)N1c1cccc(CCCCCCCC(=O)*)c1

Consider `C[C@H](NC(=O)CNC(=O)[C@H](CCCNC(=N)N)NC(=O)CCCCCCCc1cccc(N2C(=O)C=CC2=O)c1)C(=O)N[C@@H](CC(=O)O)C(=O)N[C@@H](CCCNC(=N)N)C(=O)N[C@@H](C)C(=O)NCC(=O)NCC(=O)NCC(=O)NCC(=O)N[C@@H](CCCNC(=N)N)C(=O)NCC(=O)N[C@@H](CC(=O)O)C(=O)O` [X31] (X66-RGADRAGGGGRGD-OH), for which the “Swelling degree” value (right minus left ear piece weight 2 h after xylene) was determined as 3.16 ± 0.55 mg. The “Inhibition rate (%)” value (xylene-induced ear swelling) came out at 16.85%.
